According to US6294555A, “1-[(1-Substituted-4-piperidinyl)methyl]-4-piperidine derivative, process for producing the same, medicinal compositions containing the same and intermediates of these compounds” (Dainippon Pharmaceutical Co., Ltd., priority 1998, dated 2001):

How the values were obtained:
dopamine D2 receptors = details: background art; cited from earlier work
[1] = background art; cited from earlier work
5-HT4 receptors = details: background art, J. Pharmacol. Exp. Ther., 1990, 252, 1378; 1991, 257, 781; cited from earlier work
[2] = tested on: Mice of Std-ddY strain (evacuation); assay: Assay on Evacuation in Mice (fecal pellets, oral); type: in vivo, mouse (Std-ddY, male); set-up: key: -: Inactive; +: Moderately stimulated (P<0.05); ++: Markedly stimulated (p<0.01); details: 1 mg/kg oral; fecal pellets at 30, 60 and 120 minutes; Dunnett's test; fumarates except numbers marked ** (25, 86: free bases)
Procedure: Male mice of Std-ddY strain weighing 25-30 g were used. Free access to food and water was allowed up to the beginning of the procedure.
The mice (each group: five mice) were placed in a mesh bottom cage for fasting, and they were allowed for acclimation to new environment for about one hour prior to the start of the experiment. A test compound, which was previously suspended in the 0.5% tragacanth solution, was administered orally to the mice at a dose of 1 mg/kg. The fecal pellets were counted and collected at 30, 60 and 120 minutes after the treatment of a test compound, and weighed.
The statistical judgment of efficacy was carried out between the control group and the treated group, and determined by Dunnett's test.

[3] = Acute Toxicity (intravenous, lethality over 7 days); details: mouse, in vivo, mice, observed for 7 days, read-out: 50% lethal dose (LD50)
Procedure: Male mice of Std-ddY strain weighing 25-30 g were used in a group of 5 animals. A test compound was suspended in physiological saline solution or 1% lactose solution and administered intravenously to the mice. […] The LD50 doses of the compounds of Examples 1, 10, 12, 18, 20, 21, 25 and 26 were all more than 100 mg/kg.

[4] = molecular target: T1, Serotonin 4 (5-HT4) Receptors (Cavia porcellus, UniProt O70528); assay: Binding Assay on Serotonin 4 (5-HT4) Receptors ([3H]-GR113808, striatum membrane fractions); set-up: species or system guinea pig (Std-Hartley); details: 50% inhibition of specific binding of 0.1 nM [3H]-GR113808; 37° C., 30 min; test compounds are fumarates except numbers marked ** (62, 72, 74: free bases)
T1 construct: the striatum was dissected; from tissue; host or cells: guinea pig (Std-Hartley) brain striatum, membrane fractions
T1 sequence (O70528 whole entry): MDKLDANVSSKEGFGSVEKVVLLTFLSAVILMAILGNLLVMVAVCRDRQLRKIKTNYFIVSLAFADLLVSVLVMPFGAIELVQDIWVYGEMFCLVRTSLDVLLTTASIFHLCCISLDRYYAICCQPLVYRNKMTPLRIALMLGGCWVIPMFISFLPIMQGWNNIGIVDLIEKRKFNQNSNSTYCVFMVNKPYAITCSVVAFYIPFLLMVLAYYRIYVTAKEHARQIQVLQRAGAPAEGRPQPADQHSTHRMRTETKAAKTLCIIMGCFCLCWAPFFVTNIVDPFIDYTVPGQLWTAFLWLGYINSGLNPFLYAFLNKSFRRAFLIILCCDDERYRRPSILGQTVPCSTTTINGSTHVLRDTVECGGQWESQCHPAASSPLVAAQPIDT
Procedure: Std-Hartley guinea pigs weighing 300-400 g were decapitated, and the brain thereof was immediately taken out, and the striatum was dissected. To the tissue thus obtained was added 15-times volume of Hepes buffer (50 mM, pH7.4, 4° C.), homogenized in a Teflon homogenizer, and centrifuged at 48,000×g at 4° C. for 15 minutes. The pellet was suspended in the same Hepes buffer in a volume of 1 ml per 30 mg of the wet tissues to give receptor membrane fractions.
The reaction was terminated by rapid vacuum filtration and washing (3×4 ml) with ice-cold 50 mM Tris-HCl buffer (pH 7.7) through Whatman GF/B filter paper using a Brandel cell harvester. Prior to the filtration, the filter to be used was presoaked in a 0.1% solution of polyethylenimine for one hour. The radioactivity on the filter was determined with by ACS-II scintillation cocktail by a liquid scintillation counter.

Compound | inhibitory effects on the central nervous system / dopamine D2 antagonism (dopamine D2 receptors) | side effects on the heart [1] | gastrointestinal motility (5-HT4 receptors) | Effect (evacuation) [2] | LD50 at 168 h [3] | IC50 [4]
COc1cc(N)c(Cl)cc1C(=O)N[C@H]1CCN(CCCOc2ccc(F)cc2)C[C@H]1OC (relative stereo) [Comp. A, cis-4-amino-5-chloro-N-[1-[3-(4-fluorophenoxy)-propyl]-3-methoxy-4-piperidinyl]-2-methoxybenzamide] | inhibitory effects on the central nervous system based on the antagonistic activity against dopamine D2 receptors | side effects on the heart | enhance the gastrointestinal motility by stimulating 5-HT4 receptors | – | – | –
COc1cc(N)c(Cl)cc1C(=O)NC1CCN(CC2CCN(C(=O)N(C)C)CC2)CC1 [Example 1, 4-amino-5-chloro-N-[1-(1-dimethylcarbamoyl-4-piperidinylmethyl)-4-piperidinyl]-2-methoxybenzamide] | – | – | – | ++ | > 100 mg/kg | 11.9 nM
COc1cc(N)c(Cl)cc1C(=O)NC1CCN(CC2CCN(C(=S)N(C)C)CC2)CC1 [Example 10, 4-amino-5-chloro-N-[1-(1-dimethylthiocarbamoyl-4-piperidinylmethyl)-4-piperidinyl]-2-methoxybenzamide] | – | – | – | ++ | > 100 mg/kg | 8 nM
COc1cc(N)c(Cl)cc1C(=O)NC1CCN(CC2CCN(C(=O)N3CCCC3)CC2)CC1 [Example 12, 4-amino-5-chloro-2-methoxy-N-[1-[1-(1-pyrrolidinecarbonyl)-4-piperidinylmethyl]-4-piperidinyl]benzamide] | – | – | – | ++ | > 100 mg/kg | 8.7 nM
CN(C)C(=O)N1CCC(CN2CCC(NC(=O)c3cc(Cl)c(N)c4c3OCC4)CC2)CC1 [Example 18, 4-amino-5-chloro-N-[1-(1-dimethylcarbamoyl-4-piperidinylmethyl)-4-piperidinyl]-2,3-dihydrobenzo[b]furan-7-carboxamide] | – | – | – | ++ | > 100 mg/kg | 3.3 nM
CN(C)C(=S)N1CCC(CN2CCC(NC(=O)c3cc(Cl)c(N)c4c3OCC4)CC2)CC1 [Example 20, 4-amino-5-chloro-N-[1-(1-dimethylthiocarbamoyl-4-piperidinylmethyl)-4-piperidinyl]-2,3-dihydrobenzo[b]furan-7-carboxamide] | – | – | – | ++ | > 100 mg/kg | 1.3 nM
Nc1c(Cl)cc(C(=O)NC2CCN(CC3CCN(C(=O)N4CCCC4)CC3)CC2)c2c1CCO2 [Example 21, 4-amino-5-chloro-N-[1-[1-(1-pyrrolidinecarbonyl)-4-piperidinylmethyl)-4-piperidinyl]-2,3-dihydrobenzo[b]furan-7-carboxamide] | – | – | – | ++ | > 100 mg/kg | 2.4 nM
CCOc1cc(N)c(Cl)cc1C(=O)NC1CCN(CC2CCN(C(=O)N(C)C)CC2)CC1 [Example 25, 4-amino-5-chloro-N-[1-(1-dimethylcarbamoyl-4-piperidinylmethyl)-4-piperidinyl]-2-ethoxybenzamide] | – | – | – | ++ | > 100 mg/kg | 4.2 nM
COc1cc(N)c(Br)cc1C(=O)NC1CCN(CC2CCN(C(=O)N(C)C)CC2)CC1 [Example 26, 4-amino-5-bromo-N-[1-(1-dimethylcarbamoyl-4-piperidinylmethyl)-4-piperidinyl]-2-methoxybenzamide] | – | – | – | + | > 100 mg/kg | 11.5 nM
CCOc1cc(N)c(Cl)cc1C(=O)NC1CCN(CC2CCN(C(=O)CCOC)CC2)CC1 [Example 81, 4-amino-5-chloro-2-ethoxy-N-[1-[1-(3-methoxypropionyl)-4-piperidinylmethyl]-4-piperidinyl]benzamide] | – | – | – | ++ | – | 7.7 nM
CCC(=O)CN1CCC(CN2CCC(NC(=O)c3cc(Cl)c(N)cc3OC)CC2)CC1 [Example 86] | – | – | – | ++ | – | 8.3 nM
CCN(CC)CCNC(=O)c1cc(Cl)c(N)cc1OC [metoclopramide] | – | – | enhance the gastrointestinal motility by stimulating 5-HT4 receptors | – | – | –
